Results from patent publication US11141403B2, “Benzimidazoles and indoles as taro inhibitors” (MERCK SHARP & DOHME CORP., priority 2015, dated 2021).
Read-outs that look alike come from different tables or passages of the source.

Tested on: MRSA COL (MB5393)
Assay: TarO Inhibitor/β-Lactam Synergy Assay
Type: cell-based, Staphylococcus aureus
Conditions: 20 hours; for IC95: TarO inhibitor alone, OD600, 95% growth inhibition, read-out: MITC95 TarO inhibitor alone, Bacteria: SA_MB5393; for MITC95 TarO inhibitor + 4 μg/mL IPM; Bacteria: SA_MB5393: in combination with 4 μg/mL imipenem; for MITC95 TarO inhibitor + 4 μg/mL IPM; Bacteria: SA_MB5393 / MITC95 TarO inhibitor + 8 μg/mL DCX; Bacteria: SA_MB5393: OD600; for MITC95 TarO inhibitor + 8 μg/mL DCX; Bacteria: SA_MB5393: in combination with 8 μg/mL dicloxacillin
Description: The TarO inhibitor/β-lactam synergy assay was performed to measure the re-sensitization of methicillin-resistant Staphylococci bacteria (MB5393: MRSA COL) to β-lactam antibiotics by TarO inhibitors. MRSA COL is a hospital-acquired penicillinase-negative clinically isolated strain commonly used in Staphylococcus aureus studies and is fully resistant to the antimicrobial bioactivity of β-lactam antibiotics, including but not limited to imipenem and dicloxacillin. […] MRSA COL is fully refractory to β-lactam antibiotic effect at the current clinical breakpoint concentrations and as such MRSA COL is fully viable at these concentrations.
The β-lactam antibiotic concentration was fixed at the clinical breakpoint (imipenem 4 μg/ml or dicloxacillin 8 μg/ml) and the TarO inhibitors were titrated by 2 fold starting from the highest concentration of 200 μM with final DMSO concentration of 2% in the assay. 5×10^5 colony forming unit of MRSA COL in cation-adjusted Mueller Hinton broth (CAMHB) was then mixed and the assay plate was incubated for 20 hours at 37° C. without shaking. After 20 hours, the optical density at 600 nm (OD600) was read for all wells to determine relative growth of MRSA COL.

SMILES	IC95 (Staphylococcus aureus) [µM]	MITC95 TarO inhibitor + 4 μg/mL IPM; Bacteria: SA_MB5393 [µM]	MITC95 TarO inhibitor + 8 μg/mL DCX; Bacteria: SA_MB5393 [µM]	IC95 [µM]
CCN(C(=O)CCn1c2ccc(CO)cc2nc1[C@H]1CC[C@H](CC)CC1)C1CCCCC1 [Example 1, N-cyclohexyl-N-ethyl-3-(2-(trans-4-ethylcyclohexyl)-5-(hydroxymethyl)-1H-benzo[d]imidazol-1-yl)propanamide]	> 200	1.82	6.25	
CCN(C(=O)CCn1c2cccnc2nc1[C@H]1CC[C@H](CC)CC1)C1CCCCC1 [Example 2, N-cyclohexyl-N-ethyl-3-[2-(trans-4-ethylcyclohexyl)-1H-imidazo[4,5-b]pyridin-1-yl]propanamide]	> 200	1.88	18.75	
CCN(C(=O)CCn1c2cc(C#N)ccc2nc1[C@H]1CC[C@H](CC)CC1)C1CCCCC1 [Example 3, 3-[6-cyano-2-(trans-4-ethylcyclohexyl)-1H-benzimidazol-1-yl]-N-cyclohexyl-N-ethylpropanamide]	> 200	4.17	20.83	
CCN(C(=O)CCn1c2cnccc2nc1[C@H]1CC[C@H](CC)CC1)C1CCCCC1 [Example 4, N-cyclohexyl-N-ethyl-3-[2-(trans-4-ethylcyclohexyl)-3H-imidazo[4,5-c]pyridin-3-yl]propanamide]	> 200	4.17	41.67	
CCN(C(=O)CCn1c2ccc(Br)cc2nc1[C@H]1CC[C@H](CC)CC1)C1CCCCC1 [Example 5, 3-[5-bromo-2-(trans-4-ethylcyclohexyl)-1H-benzimidazol-1-yl]-N-cvclohexyl-N-ethylpropanamide]	> 200	0.01	0.02	
CCN(C(=O)CCn1c2cc(F)ccc2nc1[C@H]1CC[C@H](CC)CC1)C1CCCCC1 [Example 6, N-cyclohexyl-N-ethyl-3-(2-(trans-4-ethvlcyclohexyl)-6-fluoro-1H-benzo[d]imidazol-1-yl)propanamide]	> 200	0.13	0.59	
CCN(C(=O)CCn1c2ccc(C(F)(F)F)cc2nc1[C@H]1CC[C@H](CC)CC1)C1CCCCC1 [Example 7, N-cyclohexyl-N-ethyl-3-[2-(trans-4-ethylcyclohexyl)-5-(trifluoromethyl)-1H-benzimidazol-1-yl]propanamide]	> 200	0.20	0.20	
CCN(C(=O)CCn1c2cc(Br)ccc2nc1[C@H]1CC[C@H](CC)CC1)C1CCCCC1 [Example 8, 3-[6-bromo-2-(trans-4-ethylcyclohexyl)-1H-benzimidazol-1-yl]-N-cyclohexyl-N-ethylpropanamide]	> 200	0.06	0.22	
CCN(C(=O)CCn1c2cccc(F)c2nc1[C@H]1CC[C@H](CC)CC1)C1CCCCC1 [Example 9, N-cyclohexyl-N-ethyl-3-[2-(trans-4-ethylcyclohexyl)-4-fluoro-1H-benzimidazol-1-yl]propanamide]	> 200	0.13	0.79	
CCN(C(=O)CCn1c2ccc(F)cc2nc1[C@H]1CC[C@H](CC)CC1)C1CCCCC1 [Example 10, N-cyclohexyl-N-ethyl-3-[2-(trans-4-ethylcyclohexyl)-5-fluoro-1H-benzimidazol-1-yl]propanamide]	> 200	0.004	0.03	
CCN(C(=O)CCn1c2c(F)cccc2nc1[C@H]1CC[C@H](CC)CC1)C1CCCCC1 [Example 11, N-cyclohexyl-N-ethyl-3-[2-(trans-4-ethylcyclohexyl)-7-fluoro-1H-benzimidazol-1-yl]propanamide]	> 200	0.40	1.04	
CCN(C(=O)CCn1c(C2CCCN(C(=O)OC(C)(C)C)C2)nc2cc(F)ccc21)C1CCCCC1 (stereo not drawn) [Example 12, tert-butyl 3-(1-{3-[cyclohexyl(ethyl)amino]-3-oxopropyl}-5-fluoro-1H-benzimidazol-2-yl)piperidine-1-carboxylate]	> 200	0.50	1.09	
CCOC(=O)N1CCCC(c2nc3cc(F)ccc3n2CCC(=O)N(CC)C2CCCCC2)C1 (stereo not drawn) [Example 13, Ethyl 3-(1-{3-[cyclohexyl(ethyl)amino]-3-oxopropyl}-5-fluoro-1H-benzimidazol-2-yl)piperidine-1-carboxylate]	> 200	0.35	2.19	
CCN(C(=O)CCn1c2cc(CO)ccc2nc1[C@H]1CC[C@H](CC)CC1)C1CCCCC1 [Example 14, N-cyclohexyl-N-ethyl-3-[2-(trans-4-ethylcyclohexyl)-6-(hydroxymethyl)-1H-benzimidazol-1-yl]propanamide]	> 200	0.52	3.13	
CCN(C(=O)CCn1c(C2CCCN(C(=O)OC(C)(C)C)C2)nc2cc(F)ccc21)C1CCCCC1 (stereo not drawn) [Example 15, tert-butyl 3-(1-{3-[cyclohexyl(ethyl)amino]-3-oxopropyl}-5-fluoro-1H-benzimidazol-2-yl)piperidine-1-carboxylate]		0.52	4.17	>200
CCN(C(=O)CCn1c2ccc(OC)cc2nc1[C@H]1CC[C@H](CC)CC1)C1CCCCC1 [Example 16, N-cyclohexyl-N-ethyl-3-[2-(trans-4-ethylcyclohexyl)-5-methoxy-1H-benzimidazol-1-yl]propanamide]	> 200	1.04	14.58	
CCN(C(=O)CCn1c2ccncc2nc1[C@H]1CC[C@H](CC)CC1)C1CCCCC1 [Example 17, N-cyclohexyl-N-ethyl-3-[2-(trans-4-ethylcyclohexyl)-1H-imidazo[4,5-c]pyridin-1-yl]propanamide]	> 200	0.98	6.25	
CCOC(=O)N1CCCC(c2nc3cc(F)ccc3n2CCC(=O)N(CC)C2CCCCC2)C1 (stereo not drawn) [Example 18, Ethyl 3-(1-{3-[cyclohexyl(ethyl)amino]-3-oxopropyl}-5-fluoro-1H-benzimidazol-2-yl)piperidine-1-carboxylate]		1.09	23.75	>200
CCN(C(=O)CCn1c2ncccc2nc1[C@H]1CC[C@H](CC)CC1)C1CCCCC1 [Example 19, N-cyclohexyl-N-ethyl-3-[2-(trans-4-ethylcyclohexyl)-3H-imidazo[4,5-b]pyridin-3-yl]propanamide]	> 200	1.95	28.13	
CCN(C(=O)CCn1c2cccc(C(F)F)c2nc1[C@H]1CC[C@H](C)CC1)C1CCCCC1 [Example 20, N-cyclohexyl-3-[4-(difluoromethyl)-2-(trans-4-methylcyclohexyl)-1H-benzimidazol-1-yl]-N-ethylpropanamide]	100	1.56	12.50	
CCN(C(=O)CCn1c(C2CCN(C(=O)OC(C)(C)C)C2)nc2cc(F)ccc21)C1CCCCC1 (stereo not drawn) [Example 21, tert-butyl 3-(1-{3-[cyclohexyl(ethyl)amino]-3-oxopropyl}-5-fluoro-1H-benzimidazol-2-yl)pyrrolidine-1-carboxylate]	> 200	0.78	13.54	
CCN(C(=O)CCn1c2ccc(C#N)cc2nc1[C@H]1CC[C@H](CC)CC1)C1CCCCC1 [Example 22, 3-[5-cyano-2-(trans-4-ethylcyclohexyl)-1H-benzimidazol-1-yl]-N-cyclohexyl-N-ethylpropanamide]	> 200	0.36	0.88	
CCOC(=O)N1CCCC(c2nc3ccc(F)cc3n2CCC(=O)N(CC)C2CCCCC2)C1 (stereo not drawn) [Example 23, Ethyl 3-(1-{3-[cyclohexyl(ethyl)amino]-3-oxopropyl}-6-fluoro-1H-benzimidazol-2-yl)piperidine-1-carboxylate]	> 200	9.38	37.50	
